pIC50: −log10 of the molar value.
Target: human DGAT2 (hDGAT2) (Homo sapiens (Human), UniProt Q96PD7)
Assay: DGAT2 Enzymatic Activity Assay
Type: biochemical
Details: membrane prep of Sf-9 insect cells expressing hDGAT2; 13C18-triolein product by LC/MS/MS
Summary of the method: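 Membranes from Sf-9 cells infected with untagged hDGAT2 baculovirus (8 ng/μL) incubated at rt in 100 mM Tris pH 7.0, 20 mM MgCl2, 5% ethanol with 25 μM diolein and 5 μM 13C oleoyl-CoA. 13C18-triolein product quantified by LC/MS/MS against 13C21-triolein internal standard; IC50 by 4-parameter fit.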

Chain of human DGAT2 (hDGAT2) (Q96PD7 whole entry): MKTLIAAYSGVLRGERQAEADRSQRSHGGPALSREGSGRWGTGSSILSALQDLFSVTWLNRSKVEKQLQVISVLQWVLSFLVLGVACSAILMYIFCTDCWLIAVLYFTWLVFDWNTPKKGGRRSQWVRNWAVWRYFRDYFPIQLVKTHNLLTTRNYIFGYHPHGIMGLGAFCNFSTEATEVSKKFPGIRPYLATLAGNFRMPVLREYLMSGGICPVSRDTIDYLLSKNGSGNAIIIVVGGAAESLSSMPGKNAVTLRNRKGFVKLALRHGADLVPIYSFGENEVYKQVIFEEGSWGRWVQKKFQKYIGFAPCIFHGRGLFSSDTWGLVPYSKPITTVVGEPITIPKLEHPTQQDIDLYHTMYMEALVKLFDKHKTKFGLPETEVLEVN

SMILES: CC(C)n1nc(-c2ccnc(N(C)C)c2)c2ncc(C(=O)NC3(C)CS(=O)(=O)C3)cc21 [Example 125, 3-(2-(dimethylamino)pyridin-4-yl)-1-isopropyl-N-(3-methyl-1,1-dioxidothietan-3-yl)-1H-pyrazolo[4,3-b]pyridine-6-carboxamide]
- pIC50: < 6.00

Source: patent publication US20240059700A1, “NOVEL DIACYLGLYCERIDE O-ACYLTRANSFERASE 2 INHIBITORS” (Merck Sharp & Dohme LLC, priority 2020, published 2024)
